# Test results published in the SangsterLogP compilation.
row,Compound,logP
1,CN1CC=C(c2ccncc2)CC1,1.25
2,CN1CC=C(c2cccs2)CC1,2.51
3,CN1CC=C(c2ccc(Cl)cc2)CC1,3.32
4,Fc1ccc(C2=CCNCC2)cc1,2.37
5,CN1CC=C(c2ccc(N)cc2)CC1,1.48
6,C1=C(c2ccccc2)CCNC1,1.99
7,CCN1CC=C(c2ccccc2)CC1,3.18
8,C1=C(c2ccccc2)CCN(CCc2ccccc2)C1,3.98
9,Cc1ccccc1C1=CCN(C)CC1,3.1
10,CN1CC=C(c2cccc(N)c2)CC1,1.47
11,CC1=C(c2ccccc2)CCN(C)C1,3.18
12,OCCN1CC=C(c2ccccc2)CC1,2
